Measurements as given in US9687522B2, “Methods of treating a subject afflicted with an autoimmune disease using predictive biomarkers of clinical response to glatiramer acetate therapy in multiple sclerosis” (TEVA PHARMACEUTICAL INDUSTRIES, LTD., priority 2010, dated 2017).

Legend:
IL-4 = IL-4 ELISPOT in ex-vivo PBMC of GA-treated MS patients; format: cell-based, human; design: unit not given here; details: CD3/CD28 stimulated PBMC
Source text: (§1) Approximately 60 cc of blood was obtained by venipuncture from each MS patient pre-treatment and at successive time points during treatment (3 months, 6 months, 9-12 months and 24 months). PBMC were purified using Ficoll-Hypaque gradients as described in the supplier's protocol (ICN Biomedicals Inc. Ohio, USA). Samples from collaborating centers were sent via overnight FedEx™ delivery at room temperature and processed immediately upon arrival.
Human IFN-γ (Th1 indicator) and IL-4 (Th2 indicator) were measured by the ELISPOT assay according to the manufacturer's protocol (BD Biosciences, San Diego, Calif., USA). Briefly, ELISPOT plates (PVDF plate, Millipore Corporation, MA, USA) were coated with 100 μl/well of 5 μg/ml capture antibody at 4° C. over night. The plates were then washed with PBS, and incubated with 200 μl/well of blocking solution (culture medium) for 2 hours. PBMC (2×10^5 cells/well for IFN-γ and 4×10^5 cells/well for IL-4 detection) and antigen (GA 40 and 100 μg/ml, TT 5 μg/ml, CD3Ab (2.5 μg/ml)/CD28 Ab (1 μg/ml)) was added and cultured overnight at 37° C. in a 5% CO2 incubator. Samples were tested in triplicate wells in response to each antigen. After overnight culture, the plates were washed twice with deionized water and three times with PBS, then incubated with 100 μl of 2.0 μg/ml biotinylated antibody for 2 hours at room temperature. The plates were then washed three times with wash buffer (0.05% Tween-20 PBS), and incubated with 100 μl of 1:100 dilution of Avidin-HRP for 1 hour at room temperature and washed three times with wash buffer. Finally 100 μl of AEC (3-amino-9-ethyl-carbazole) substrate was added and the reaction was stopped by washing plates with distilled water. Spots were counted and analyzed by CTL Analyzers LLC ELISPOT Plate Reader (Cleveland, Ohio, USA).

IL-10 = experiment: Serum IL-10 by ELISA in GA-treated MS patients; format: in vivo, human
Source text: as §1
Interleukin-18 and caspase-1 levels were detected by human ELISA kits (Sandwich ELISA, Bender Nedaystems, USA). The sensitivity of the ELISA was 9.2 and 3.3 pg/ml for IL-18 and caspase-1 respectively. TGF-β, TNF-α, IL-4, IFN-γ, IL-17 and IL-10 levels were detected by human ELISA kits from ebioscience (San Diego Calif., 92121 USA). The sensitivity of the ebioscience kits were 60 pg/ml, 4 pg/ml, 2 pg/ml, 4 pg/ml, 4 pg/ml and 2 pg/ml respectively. BDNF was detected by the Human BDNF ELISA kit from Chemicon International (catalog #CYT306). The sensitivity of the BDNF ELISA was 7.8 pg/ml. […] Duplicates should be within 20% of the mean.

Glatiramer acetate [GA]
IL-4 expression (ELISPOT) (IL-4; HR/NR, 3 mo): 14 ± 4 | IL-4 expression (ELISPOT) (IL-4; HR/NR, 6 mo): 20 ± 6 | IL-4 expression (ELISPOT) (IL-4; HR/NR, 9-12 mo): 23 ± 5 | IL-4 expression (ELISPOT) (IL-4; HR/NR, 24 mo): 21 ± 3.5 | IL-4 expression (ELISPOT) (IL-4; HR/NR, Baseline): 39 ± 9 | IL-4 expression (ELISPOT) (IL-4; R, 3 mo): 44 ± 7.4 | IL-4 expression (ELISPOT) (IL-4; R, 6 mo): 45 ± 7.3 | IL-4 expression (ELISPOT) (IL-4; R, 9-12 mo): 39 ± 5.8 | IL-4 expression (ELISPOT) (IL-4; R, 24 mo): 36 ± 7.2 | IL-4 expression (ELISPOT) (IL-4; R, Baseline): 35 ± 5.9 | Serum IL-10 level (IL-10; HR/NR, 3 mo): 40 ± 7.0 pg/mL | Serum IL-10 level (IL-10; HR/NR, 6 mo): 37 ± 8.3 pg/mL | Serum IL-10 level (IL-10; HR/NR, 9-12 mo): 40 ± 7.0 pg/mL | Serum IL-10 level (IL-10; HR/NR, 24 mo): 37.6 ± 5 pg/mL | Serum IL-10 level (IL-10; HR/NR, Pre-Rx): 38 ± 9 pg/mL | Serum IL-10 level (IL-10; R, 3 mo): 47 ± 8.1 pg/mL | Serum IL-10 level (IL-10; R, 6 mo): 67 ± 11 pg/mL | Serum IL-10 level (IL-10; R, 9-12 mo): 69.8 pg/mL | Serum IL-10 level (IL-10; R, 24 mo): 56 ± 18 pg/mL | Serum IL-10 level (IL-10; R, Pre-Rx): 32 ± 4.5 pg/mL | Δ IL-10 6 months, Median (Non-Responders) (IL-10; serum, change from baseline): −1.5 | Δ IL-10 6 months, Median (Responders) (IL-10; serum, change from baseline): 15 | Δ IL-10 9 months, Median (Non-Responders) (IL-10; serum, change from baseline): −2 | Δ IL-10 9 months, Median (Responders) (IL-10; serum, change from baseline): 42 | Δ IL-10 24 months, Median (Non-Responders) (IL-10; serum, change from baseline): 1 | Δ IL-10 24 months, Median (Responders) (IL-10; serum, change from baseline): 29
